Data published in patent US9440933B2, “Azole derivative, method for producing same, intermediate compound, and agricultural or horticultural chemical agent and industrial material protecting agent” (KUREHA CORPORATION, priority 2011, dated 2016).

Assays:
[1] = system: wheat leaf blight-causing microbe; assay: Antimicrobial activity to wheat leaf blight-causing microbe (PDA plate, hyphal expansion inhibition); type: cell-based, Septoria tritici; conditions: PDA medium, 25° C., 14 days; for inhibition at 50 µg/mL / inhibition at 1.25 µg/mL: 336 h; for inhibition at 50 µg/mL: read-out: Growth inhibition; for inhibition at 1.25 µg/mL: test sample concentration 1.25 mg/L, read-out: hyphal expansion-inhibiting rate
Procedure: In this Test Example, antimicrobial activity of the inventive compounds to wheat leaf blight-causing microbe was determined and compared with that of the comparative compound (1).

[2] = system: wheat leaf rust-causing microbe; assay: Wheat leaf rust-controlling activity (foliar spray, pot test); type: in vivo, Puccinia recondita
[3] = system: Wheat fusarium blight-causing microbe (Fusarium graminearum); type: cell-based; conditions: 50 mg/L
[4] = system: Rice blast-causing microbe (Pyricularia oryzae); type: cell-based; conditions: 50 mg/L
[5] = system: wheat powdery mildew-causing microbes; assay: Controlling activity to wheat powdery mildew of seed treatment (pot test); type: in vivo, Erysiphe graminis f. sp tritici; conditions: 2 mg in DMSO applied to wheat seeds 1 g, 14 to 28 days after seeding
Procedure: Controlling activity to wheat powdery mildew was examined in a pot test. Each of the inventive compounds […]-53, and a comparative compound (1) was weighed in an amount of 2 mg and dissolved in DMSO (18 μl). The solution thus prepared was applied to wheat seeds 1 g in a vial, 8 wheat seeds were seeded in a 80 cm^2 pot. The wheat was grown, as water was supplied from blow, in a greenhouse where wheat powdery mildew-causing microbes are present abundantly. The incidence rate was determined and the controlling rate and additionally the controlling index calculated 14 to 28 days after seeding. The controlling rate was calculated and the wheat powdery mildew controlling index determined according to the following equation: Controlling rate=(1-Incidence rate in treated region/Incidence rate in non-treated region)×100(%) [table]

[6] = system: Wheat glume blotch-causing microbe (Phaeosphaeria nodorum); assay: Antimicrobial activity to various pathogenic microbes: P.n; conditions: 50 mg/L
Procedure: (§1) An inventive compound was dissolved in dimethylsulfoxide 2 ml. The solution 0.6 ml was added to a PDA medium (potato-dextrose-agar medium) 60 ml at around 60° C.
(§2) A flat plate containing a test microbe (wheat leaf blight-causing microbe) cultured separately was punched into pieces with a cork borer having a diameter of 4 mm and the circular plate obtained was placed on the flat plate media containing the chemical described above. The plates were cultured at 25° C. for 14 days after inoculation and the diameter of the microbial colony was determined. Hyphal expansion-inhibiting rate was calculated according to the following equation: R=100(dc−dt)/dc (wherein, R: hyphal expansion-inhibiting rate (%), dc: diameter of microbial colony on non-treated flat plate, dt: diameter of microbial colony on chemically-treated flat plate).
(§3) In this Test Example, the antimicrobial activity of the inventive compounds to various plant disease-causing fungi and industrial material-eroding microorganisms was studied by the method described in Example 1.
(§4) The results thus obtained were evaluated in 5 stages according to the criteria below:
Wheat glume blotch-causing microbe (Phaeosphaeria nodorum) P.n

[7] = system: Wheat eye spot-causing microbe (Pseudocercoporella herpotrichoides); assay: Antimicrobial activity to various pathogenic microbes: P.h; conditions: 50 mg/L
Procedure: as §1
(§5) The plates were cultured at 25° C. for 14 days after inoculation and the diameter of the microbial colony was determined. Hyphal expansion-inhibiting rate was calculated according to the following equation: R=100(dc−dt)/dc (wherein, R: hyphal expansion-inhibiting rate (%), dc: diameter of microbial colony on non-treated flat plate, dt: diameter of microbial colony on chemically-treated flat plate).
as §4
Wheat eye spot-causing microbe (Pseudocercoporella herpotrichoides) P.h

[8] = system: Barley loose smut-causing microbe (Ustilago nuda); assay: Antimicrobial activity to various pathogenic microbes: U.n; conditions: 50 mg/L
Procedure: as §1, §5, §4
Barley loose smut-causing microbe (Ustilago nuda) U.n

[9] = system: Rice bakanae disease-causing microbe (Gibberella fujikuroi); assay: Antimicrobial activity to various pathogenic microbes: G.f; conditions: 50 mg/L
Procedure: as §1, §2, §4

[10] = system: Apple alternaria blotch-causing microbe (Alternaria alternata); assay: Antimicrobial activity to various pathogenic microbes: A.m; conditions: 50 mg/L
Procedure: as §1, §2, §3, §4
Apple alternaria blotch-causing microbe (Alternaria alternata) A.m

[11] = system: Sclerotinia rot-causing microbe (Sclerotinia sclerotiorum); assay: Antimicrobial activity to various pathogenic microbes: S.s; conditions: 50 mg/L
Procedure: as §1, §2, §4
Sclerotinia rot-causing microbe (Sclerotinia sclerotiorum) S.s

[12] = system: Gray mold-causing microbe (Botrytis cinerea); assay: Antimicrobial activity to various pathogenic microbes: B.c; conditions: 50 mg/L
Procedure: as §1, §2, §3, §4
Gray mold-causing microbe (Botrytis cinerea) B.c

[13] = system: Cucumber Fusarium wilt-causing microbe (Fusarium oxysporum); assay: Antimicrobial activity to various pathogenic microbes: F.c; conditions: 50 mg/L
Procedure: as §1, §2, §4

[14] = system: Barley scald-causing microbe (Rhynchosporium secalis); assay: Antimicrobial activity to various pathogenic microbes: R.sec; conditions: 50 mg/L
Procedure: as §1, §2, §3, §4
Barley scald-causing microbe (Rhynchosporium secalis) R.sec

wheat [15] = assay: Damage to wheat (growth inhibition) by seed treatment (pot test); conditions: 2 mg in DMSO applied to wheat seeds 1 g, 14 to 28 days after seeding, larger index = smaller damage
[16] = system: wheat leaf rust-causing microbe; assay: Control activity of wheat leaf rust by seed treatment (pot test); type: in vivo, Puccinia recondita; conditions: 2 mg in DMSO applied to wheat seeds 10 g, inoculated 21 days after seeding
Procedure: Controlling activity to wheat leaf rust was examined in a pot test. […] The solution prepared was applied to wheat seeds 10 g in a vial and 8 wheat seeds were seeded in a 80 cm^2 pot. The seeds were grown in greenhouse, as water was supplied from below; a wheat leaf rust-causing microbe was inoculated 21 days after seeding; and the pot was stored in a constant-humidity box for 2 days. The plant was grown in green house, as water was supplied from below, and the incidence rate was determined and the controlling rate calculated […]. The controlling rate was calculated according to the equation below and used as the wheat leaf rust-controlling rate. Controlling rate=(1−Incidence rate in treated region/Incidence rate in non-treated region)×100(%)

wheat [17] = assay: Damage (necrosis) to wheat by seed treatment (pot test); type: in vivo; conditions: 2 mg in DMSO applied to wheat seeds 1 g, 12 days after seeding
Procedure: Damage (necrosis) to wheat was examined in a pot test. An inventive compound 1-2 and a comparative compound (1) were dissolved in DMSO (18 μl) respectively in an amount of 2 mg. The solution thus prepared was applied to wheat seeds 1 g in a vial and 8 seeds were seeded in a 80 cm^2 pot. The plant was grown in green house, as water was supplied from below, and the damage was determined 12 days after seeding.

[18] = Concentration 25 g/ha, wettable powder sprayed on wheat (Norin No. 61), 9 to 14 days after inoculation

CCOC(=O)[C@]1(C)CC[C@@H](Cc2ccc(Cl)cc2)[C@]1(O)Cn1cncn1 (racemic) [Compound I-3, ethyl-(1RS,2RS,3SR)-3-(4-chlorobenzyl)-2-hydroxy-1-methyl-2-(1H-1,2,4-triazol-1-ylmethyl)cyclopentanecarboxylate]
inhibition at 50 µg/mL ([1]; Concentration 50 mg/L): > 80% | inhibition at 1.25 µg/mL [1]: ≥ 80% | Controlling index [2, 18]: 5 (81 to 100) | Growth inhibition (hyphal expansion-inhibiting rate grade) F.g [3]: 5 (hyphal expansion-inhibiting rate: 80% or more) | Growth inhibition (hyphal expansion-inhibiting rate grade) P.o [4]: 5 (hyphal expansion-inhibiting rate: 80% or more) | Controlling index Wheat powdery mildew [5]: 5 (Controlling rate: 40 or more) | Growth inhibition (hyphal expansion-inhibiting rate grade) P.n [6]: 5 (hyphal expansion-inhibiting rate: 80% or more) | Growth inhibition (hyphal expansion-inhibiting rate grade) P.h [7]: 5 (hyphal expansion-inhibiting rate: 80% or more) | Growth inhibition (hyphal expansion-inhibiting rate grade) U.n [8]: 5 (hyphal expansion-inhibiting rate: 80% or more) | Growth inhibition (hyphal expansion-inhibiting rate grade) G.f [9]: 5 (hyphal expansion-inhibiting rate: 80% or more) | Growth inhibition (hyphal expansion-inhibiting rate grade) A.m [10]: 5 (hyphal expansion-inhibiting rate: 80% or more) | Growth inhibition (hyphal expansion-inhibiting rate grade) S.s [11]: 5 (hyphal expansion-inhibiting rate: 80% or more) | Growth inhibition (hyphal expansion-inhibiting rate grade) B.c [12]: 5 (hyphal expansion-inhibiting rate: 80% or more) | Growth inhibition (hyphal expansion-inhibiting rate grade) F.c [13]: 5 (hyphal expansion-inhibiting rate: 80% or more) | Growth inhibition (hyphal expansion-inhibiting rate grade) R.sec [14]: 5 (hyphal expansion-inhibiting rate: 80% or more) | Damage index Growth inhibition (wheat [15]): 1 (60% or more and less than 80%)

COC(=O)[C@]1(C)CC[C@@H](Cc2ccc(Cl)cc2)[C@]1(O)Cn1cncn1 (racemic) [Compound I-2, methyl-(1RS,2RS,3SR)-3-(4-chlorobenzyl)-2-hydroxy-1-methyl-2-(1H-1,2,4-triazol-1-ylmethyl)cyclopentanecarboxylate]
inhibition at 50 µg/mL ([1]; Concentration 50 mg/L): > 80% | inhibition at 1.25 µg/mL [1]: ≥ 80% | Controlling index [2, 18]: 5 (81 to 100) | Growth inhibition (hyphal expansion-inhibiting rate grade) F.g [3]: 5 (hyphal expansion-inhibiting rate: 80% or more) | Growth inhibition (hyphal expansion-inhibiting rate grade) P.o [4]: 5 (hyphal expansion-inhibiting rate: 80% or more) | controlling rate (wheat leaf rust) [16]: 95% | Damage (necrosis) (wheat [17]): no necrotic symptom | Controlling index Wheat powdery mildew [5]: 5 (Controlling rate: 40 or more) | Growth inhibition (hyphal expansion-inhibiting rate grade) P.n [6]: 5 (hyphal expansion-inhibiting rate: 80% or more) | Growth inhibition (hyphal expansion-inhibiting rate grade) P.h [7]: 5 (hyphal expansion-inhibiting rate: 80% or more) | Growth inhibition (hyphal expansion-inhibiting rate grade) U.n [8]: 5 (hyphal expansion-inhibiting rate: 80% or more) | Growth inhibition (hyphal expansion-inhibiting rate grade) G.f [9]: 5 (hyphal expansion-inhibiting rate: 80% or more) | Growth inhibition (hyphal expansion-inhibiting rate grade) A.m [10]: 5 (hyphal expansion-inhibiting rate: 80% or more) | Growth inhibition (hyphal expansion-inhibiting rate grade) S.s [11]: 5 (hyphal expansion-inhibiting rate: 80% or more) | Growth inhibition (hyphal expansion-inhibiting rate grade) B.c [12]: 5 (hyphal expansion-inhibiting rate: 80% or more) | Growth inhibition (hyphal expansion-inhibiting rate grade) F.c [13]: 5 (hyphal expansion-inhibiting rate: 80% or more) | Growth inhibition (hyphal expansion-inhibiting rate grade) R.sec [14]: 5 (hyphal expansion-inhibiting rate: 80% or more) | Damage index Growth inhibition (wheat [15]): 1 (60% or more and less than 80%)

C=CCOC(=O)[C@]1(C)CC[C@H](Cc2ccc(Cl)cc2)[C@@]1(O)Cn1cncn1 (racemic) [Compound I-134, allyl-(1RS,2SR,3RS)-3-(4-chlorobenzyl)-2-hydroxy-1-methyl-2-(1H-1,2,4-triazol-1-ylmethyl)cyclopentanecarboxylate]
inhibition at 50 µg/mL ([1]; Concentration 50 mg/L): > 80% | Controlling index [2, 18]: 5 (81 to 100) | Growth inhibition (hyphal expansion-inhibiting rate grade) F.g [3]: 5 (hyphal expansion-inhibiting rate: 80% or more) | Growth inhibition (hyphal expansion-inhibiting rate grade) P.o [4]: 5 (hyphal expansion-inhibiting rate: 80% or more) | Controlling index Wheat powdery mildew [5]: 5 (Controlling rate: 40 or more) | Growth inhibition (hyphal expansion-inhibiting rate grade) P.n [6]: 5 (hyphal expansion-inhibiting rate: 80% or more) | Growth inhibition (hyphal expansion-inhibiting rate grade) P.h [7]: 5 (hyphal expansion-inhibiting rate: 80% or more) | Growth inhibition (hyphal expansion-inhibiting rate grade) U.n [8]: 5 (hyphal expansion-inhibiting rate: 80% or more) | Growth inhibition (hyphal expansion-inhibiting rate grade) G.f [9]: 5 (hyphal expansion-inhibiting rate: 80% or more) | Growth inhibition (hyphal expansion-inhibiting rate grade) A.m [10]: 5 (hyphal expansion-inhibiting rate: 80% or more) | Growth inhibition (hyphal expansion-inhibiting rate grade) S.s [11]: 5 (hyphal expansion-inhibiting rate: 80% or more) | Growth inhibition (hyphal expansion-inhibiting rate grade) B.c [12]: 5 (hyphal expansion-inhibiting rate: 80% or more) | Growth inhibition (hyphal expansion-inhibiting rate grade) F.c [13]: 5 (hyphal expansion-inhibiting rate: 80% or more) | Growth inhibition (hyphal expansion-inhibiting rate grade) R.sec [14]: 5 (hyphal expansion-inhibiting rate: 80% or more) | Damage index Growth inhibition (wheat [15]): 3 (20% or more and less than 40%)

CC1(C)CC[C@H](Cc2ccc(Cl)cc2)[C@@]1(O)Cn1cncn1 (racemic) [Compound (1), (1RS,5SR)-5-(4-chlorobenzyl)-2-dimethyl-1-(1H-1,2,4-triazol-1-ylmethyl)cyclopentanol, reference compound]
inhibition at 50 µg/mL ([1]; Concentration 50 mg/L): > 80% | inhibition at 1.25 µg/mL [1]: 60 to 80% | Controlling index [2, 18]: 5 (81 to 100) | Controlling index ([2]; test sample concentration 1 g/ha, wettable powder sprayed on wheat): 4 (61 to 80) | controlling rate (wheat leaf rust) [16]: 88% | Damage (necrosis) (wheat [17]): necrotic symptom | Controlling index Wheat powdery mildew [5]: 5 (Controlling rate: 40 or more) | Damage index Growth inhibition (wheat [15]): 0 (80% or more)

C#CCOC(=O)[C@]1(C)CC[C@@H](Cc2ccc(Cl)cc2)[C@]1(O)Cn1cncn1 (racemic) [Compound I-5, 2-propynyl-(1RS,2RS,3SR)-3-(4-chlorobenzyl)-2-hydroxy-1-methyl-2-(1H-1,2,4-triazol-1-ylmethyl)cyclopentanecarboxylate]
Growth inhibition ([1]; Concentration 50 mg/L): 5 (hyphal expansion-inhibiting rate: 80% or more) | Controlling index [2, 18]: 5 (81 to 100) | Growth inhibition (hyphal expansion-inhibiting rate grade) F.g [3]: 5 (hyphal expansion-inhibiting rate: 80% or more) | Growth inhibition (hyphal expansion-inhibiting rate grade) P.o [4]: 5 (hyphal expansion-inhibiting rate: 80% or more) | Controlling index Wheat powdery mildew [5]: 5 (Controlling rate: 40 or more) | Growth inhibition (hyphal expansion-inhibiting rate grade) P.n [6]: 5 (hyphal expansion-inhibiting rate: 80% or more) | Growth inhibition (hyphal expansion-inhibiting rate grade) P.h [7]: 5 (hyphal expansion-inhibiting rate: 80% or more) | Growth inhibition (hyphal expansion-inhibiting rate grade) U.n [8]: 5 (hyphal expansion-inhibiting rate: 80% or more) | Growth inhibition (hyphal expansion-inhibiting rate grade) G.f [9]: 5 (hyphal expansion-inhibiting rate: 80% or more) | Growth inhibition (hyphal expansion-inhibiting rate grade) A.m [10]: 5 (hyphal expansion-inhibiting rate: 80% or more) | Growth inhibition (hyphal expansion-inhibiting rate grade) S.s [11]: 5 (hyphal expansion-inhibiting rate: 80% or more) | Growth inhibition (hyphal expansion-inhibiting rate grade) B.c [12]: 5 (hyphal expansion-inhibiting rate: 80% or more) | Growth inhibition (hyphal expansion-inhibiting rate grade) F.c [13]: 5 (hyphal expansion-inhibiting rate: 80% or more) | Growth inhibition (hyphal expansion-inhibiting rate grade) R.sec [14]: 5 (hyphal expansion-inhibiting rate: 80% or more) | Damage index Growth inhibition (wheat [15]): 1 (60% or more and less than 80%)
